The results in this text go back to patent publication US20240217983A1, “GPR119 AGONISTS” (Kallyope, Inc., priority 2021, published 2024).

The experiment has as its target T1, human GPR119 (hGPR119) (Homo sapiens, UniProt Q8TDV5).
T1 construct: expressed in transfected cells
T1 sequence (Q8TDV5 1-335): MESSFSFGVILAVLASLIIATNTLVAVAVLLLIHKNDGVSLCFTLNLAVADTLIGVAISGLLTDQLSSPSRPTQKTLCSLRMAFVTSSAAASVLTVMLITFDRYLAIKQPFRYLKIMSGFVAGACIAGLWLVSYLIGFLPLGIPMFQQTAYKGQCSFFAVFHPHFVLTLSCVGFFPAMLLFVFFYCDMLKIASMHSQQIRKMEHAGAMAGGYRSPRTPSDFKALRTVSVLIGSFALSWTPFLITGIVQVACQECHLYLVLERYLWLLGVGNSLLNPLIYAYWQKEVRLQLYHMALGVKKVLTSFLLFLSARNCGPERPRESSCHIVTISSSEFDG
Briefly: cAMP accumulation assay (Cisbio cAMP Gs dynamic HTRF kit) in CHO-K1 cells stably expressing human GPR119. Type of experiment: cell-based. The settings on record: 4-parameter fit; for Emax: 1 h, % activity normalized to Max and Min controls; for EC50: 60 minutes at 37° C. The essentials: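 Read-out is HTRF 665/620 nm ratio after 1 h detection at ambient temperature, converted to % activity against positive and negative controls, EC50 and Max activity by 4-parameter fit. Compounds were titrated onto ~10,000 thawed hGPR119-CHO-K1 cells/well for 60 min at 37° C/5% CO2.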
A general note: cAMP levels reflect the balance of adenylyl cyclase and phosphodiesterase activity.

In general, Emax refers to the maximal effect, on the per cent scale that the assay sets. What is called EC50 is the midpoint of the concentration-response curve. For `O=C(Cc1ccc(OCCCC2CCN(c3ncc(Cl)cn3)CC2)cn1)N1CCN(C[C@H](O)[C@@H](O)[C@H](O)[C@H](O)CO)CC1` [Example 88, 2-(5-(3-(1-(5-chloropyrimidin-2-yl)piperidin-4-yl)propoxy)pyridin-2-yl)-1-(4-((2S,3R,4R,5R)-2,3,4,5,6-pentahydroxyhexyl)piperazin-1-yl)ethan-1-one], the Emax lay within 100 to 130% and the concentration giving a half-maximal response (EC50) was greater than 10000 nM.
The like results for `O=C(Cc1ncc(OCCCC2CCN(c3ncc(Cl)cn3)CC2)cc1F)N1CCN(C[C@H](O)[C@@H](O)[C@H](O)[C@H](O)CO)CC1` [Example 89, 2-(5-(3-(1-(5-chloropyrimidin-2-yl)piperidin-4-yl)propoxy)-3-fluoropyridin-2-yl)-1-(4-((2S,3R,4R,5R)-2,3,4,5,6-pentahydroxyhexyl)piperazin-1-yl)ethan-1-one] were, in that order, 100 to 130% and 100 to 1000 nM.
The like results for `O=C(Cc1ccc(OCCCC2CCN(c3ncc(Cl)cn3)CC2)nc1)N1CCN(C[C@H](O)[C@@H](O)[C@H](O)[C@H](O)CO)CC1` [Example 90, 2-(6-(3-(1-(5-chloropyrimidin-2-yl)piperidin-4-yl)propoxy)pyridin-3-yl)-1-(4-((2S,3R,4R,5R)-2,3,4,5,6-pentahydroxyhexyl)piperazin-1-yl)ethan-1-one] were, in that order, 100 to 130% and 100 to 1000 nM.
On to `O=C(Cc1ccc(OCCCC2CCN(c3ncc(Cl)cn3)CC2)c(F)c1)N1CCN(C[C@H](O)[C@@H](O)[C@H](O)[C@H](O)CO)CC1` [Example 91, 2-(4-(3-(1-(5-chloropyrimidin-2-yl)piperidin-4-yl)propoxy)-3-fluorophenyl)-1-(4-((2S,3R,4R,5R)-2,3,4,5,6-pentahydroxyhexyl)piperazin-1-yl)ethan-1-one], for which the Emax lay within 100 to 130% and the EC50 is 100 to 1000 nM.
The like results for `CCc1cnc(N2CCC(CCCOc3ccc(CC(=O)N4CCN(C[C@H](O)[C@@H](O)[C@H](O)[C@H](O)CO)CC4)c(F)c3)CC2)nc1` [Example 92, 2-(4-(3-(1-(5-ethylpyrimidin-2-yl)piperidin-4-yl)propoxy)-2-fluorophenyl)-1-(4-((2S,3R,4R,5R)-2,3,4,5,6-pentahydroxyhexyl)piperazin-1-yl)ethan-1-one] were, in that order, 100 to 130% and no more than 100 nM.
The like results for `CCc1cnc(N2CCC(CCCOc3cc(F)c(CC(=O)N4CCN(C[C@H](O)[C@@H](O)[C@H](O)[C@H](O)CO)CC4)c(F)c3)CC2)nc1` [Example 93, 2-(4-(3-(1-(5-ethylpyrimidin-2-yl)piperidin-4-yl)propoxy)-2,6-difluorophenyl)-1-(4-((2S,3R,4R,5R)-2,3,4,5,6-pentahydroxyhexyl)piperazin-1-yl)ethan-1-one] were, in that order, 100 to 130% and no more than 100 nM.
The like results for `CCCc1cnc(N2CCC(CCCOc3ccc(CC(=O)N4CCN(C[C@H](O)[C@@H](O)[C@H](O)[C@H](O)CO)CC4)c(F)c3)CC2)nc1` [Example 94, 2-(2-fluoro-4-(3-(1-(5-propylpyrimidin-2-yl)piperidin-4-yl)propoxy)phenyl)-1-(4-((2S,3R,4R,5R)-2,3,4,5,6-pentahydroxyhexyl)piperazin-1-yl)ethan-1-one] were, in that order, 100 to 130% and no more than 100 nM.
`CCCc1cnc(N2CCC(CCCOc3cc(F)c(CC(=O)N4CCN(C[C@H](O)[C@@H](O)[C@H](O)[C@H](O)CO)CC4)c(F)c3)CC2)nc1` [Example 95, 2-(2,6-difluoro-4-(3-(1-(5-propylpyrimidin-2-yl)piperidin-4-yl)propoxy)phenyl)-1-(4-((2S,3R,4R,5R)-2,3,4,5,6-pentahydroxyhexyl)piperazin-1-yl)ethan-1-one] displayed an Emax of 100 to 130% and an EC50 of no more than 100 nM.
The like results for `CCOc1cnc(N2CCC(CCCOc3ccc(CC(=O)N4CCN(C[C@H](O)[C@@H](O)[C@H](O)[C@H](O)CO)CC4)c(F)c3)CC2)nc1` [Example 96, 2-(4-(3-(1-(5-ethoxypyrimidin-2-yl)piperidin-4-yl)propoxy)-2-fluorophenyl)-1-(4-((2S,3R,4R,5R)-2,3,4,5,6-pentahydroxyhexyl)piperazin-1-yl)ethan-1-one] were, in that order, 100 to 130% and 100 to 1000 nM.
The like results for `CCOc1cnc(N2CCC(CCCOc3cc(F)c(CC(=O)N4CCN(C[C@H](O)[C@@H](O)[C@H](O)[C@H](O)CO)CC4)c(F)c3)CC2)nc1` [Example 97, 2-(4-(3-(1-(5-ethoxypyrimidin-2-yl)piperidin-4-yl)propoxy)-2,6-difluorophenyl)-1-(4-((2S,3R,4R,5R)-2,3,4,5,6-pentahydroxyhexyl)piperazin-1-yl)ethan-1-one] were, in that order, 100 to 130% and no more than 100 nM.
The like results for `COCc1cnc(N2CCC(CCCOc3ccc(CC(=O)N4CCN(C[C@H](O)[C@@H](O)[C@H](O)[C@H](O)CO)CC4)c(F)c3)CC2)nc1` [Example 98, 2-(2-fluoro-4-(3-(1-(5-(methoxymethyl)pyrimidin-2-yl)piperidin-4-yl)propoxy)phenyl)-1-(4-((2S,3R,4R,5R)-2,3,4,5,6-pentahydroxyhexyl)piperazin-1-yl)ethan-1-one] were, in that order, 100 to 130% and 100 to 1000 nM.
As to `COCc1cnc(N2CCC(CCCOc3cc(F)c(CC(=O)N4CCN(C[C@H](O)[C@@H](O)[C@H](O)[C@H](O)CO)CC4)c(F)c3)CC2)nc1` [Example 99, 2-(2,6-difluoro-4-(3-(1-(5-(methoxymethyl)pyrimidin-2-yl)piperidin-4-yl)propoxy)phenyl)-1-(4-((2S,3R,4R,5R)-2,3,4,5,6-pentahydroxyhexyl)piperazin-1-yl)ethan-1-one], the Emax was 100 to 130% and the half-maximal effective concentration (EC50) is no more than 100 nM.
The like results for `COCc1cnc(N2CCC(CCCCOc3ccc(CC(=O)N4CCN(C[C@H](O)[C@@H](O)[C@H](O)[C@H](O)CO)CC4)c(F)c3)CC2)nc1` [Example 100, 2-(2-fluoro-4-(4-(1-(5-(methoxymethyl)pyrimidin-2-yl)piperidin-4-yl)butoxy)phenyl)-1-(4-((2S,3R,4R,5R)-2,3,4,5,6-pentahydroxyhexyl)piperazin-1-yl)ethan-1-one] were, in that order, 100 to 130% and 100 to 1000 nM.
The compound `COCc1cnc(N2CCC(CCCCOc3cc(F)c(CC(=O)N4CCN(C[C@H](O)[C@@H](O)[C@H](O)[C@H](O)CO)CC4)c(F)c3)CC2)nc1` [Example 101, 2-(2,6-difluoro-4-(4-(1-(5-(methoxymethyl)pyrimidin-2-yl)piperidin-4-yl)butoxy)phenyl)-1-(4-((2S,3R,4R,5R)-2,3,4,5,6-pentahydroxyhexyl)piperazin-1-yl)ethan-1-one] gave an Emax of 100 to 130% and an EC50 of no more than 100 nM.
In turn, `COCc1cnc(N2CCC(CCOCc3ccc(CC(=O)N4CCN(C[C@H](O)[C@@H](O)[C@H](O)[C@H](O)CO)CC4)c(F)c3)CC2)nc1` [Example 103, 2-(2-fluoro-4-((2-(1-(5-(methoxymethyl)pyrimidin-2-yl)piperidin-4-yl)ethoxy)methyl)phenyl)-1-(4-((2S,3R,4R,5R)-2,3,4,5,6-pentahydroxyhexyl)piperazin-1-yl)ethan-1-one] registered an Emax of 50 to 100% and a concentration giving a half-maximal response (EC50) greater than 10000 nM.
As for `CC(C)OC(=O)N1CCC(CCCOc2ccc(CC(=O)N3CCN(C[C@H](O)[C@@H](O)[C@H](O)[C@H](O)CO)CC3)c(F)c2)CC1` [Example 104, isopropyl 4-(3-(3-fluoro-4-(2-oxo-2-(4-((2S,3R,4R,5R)-2,3,4,5,6-pentahydroxyhexyl)piperazin-1-yl)ethyl)phenoxy)propyl)piperidine-1-carboxylate], the Emax was 100 to 130% and the EC50 was in the range of 100 to 1000 nM.
The like results for `O=C(Cc1ccc(OCCCC2CCN(C(=O)OC3(C(F)(F)F)COC3)CC2)cc1F)N1CCN(C[C@H](O)[C@@H](O)[C@H](O)[C@H](O)CO)CC1` [Example 105, 3-(trifluoromethyl)oxetan-3-yl 4-(3-(3-fluoro-4-(2-oxo-2-(4-((2S,3R,4R,5R)-2,3,4,5,6-pentahydroxyhexyl)piperazin-1-yl)ethyl)phenoxy)propyl)piperidine-1-carboxylate] were, in that order, 100 to 130% and 100 to 1000 nM.
The like results for `O=C(Cc1c(F)cc(OCCCC2CCN(C(=O)OC3(C(F)(F)F)COC3)CC2)cc1F)N1CCN(C[C@H](O)[C@@H](O)[C@H](O)[C@H](O)CO)CC1` [Example 106, 3-(trifluoromethyl)oxetan-3-yl 4-(3-(3,5-difluoro-4-(2-oxo-2-(4-((2S,3R,4R,5R)-2,3,4,5,6-pentahydroxyhexyl)piperazin-1-yl)ethyl)phenoxy)propyl)piperidine-1-carboxylate] were, in that order, 100 to 130% and 100 to 1000 nM.
The like results for `CC1(CCCCOc2ccc(CC(=O)N3CCN(C[C@H](O)[C@@H](O)[C@H](O)[C@H](O)CO)CC3)c(F)c2)CCN(c2ncc(Cl)cn2)CC1` [Example 107, 2-(4-(4-(1-(5-chloropyrimidin-2-yl)-4-methylpiperidin-4-yl)butoxy)-2-fluorophenyl)-1-(4-((2S,3R,4R,5R)-2,3,4,5,6-pentahydroxyhexyl)piperazin-1-yl)ethan-1-one] were, in that order, 100 to 130% and 100 to 1000 nM.
Turning to `O=C(Cc1ccc(OCCC2CC23CCN(c2ncc(Cl)cn2)CC3)cc1F)N1CCN(C[C@H](O)[C@@H](O)[C@H](O)[C@H](O)CO)CC1` (stereo partly drawn) [Example 108, 2-(4-(2-(6-(5-chloropyrimidin-2-yl)-6-azaspiro[2.5]octan-1-yl)ethoxy)-2-fluorophenyl)-1-(4-((2S,3R,4R,5R)-2,3,4,5,6-pentahydroxyhexyl)piperazin-1-yl)ethan-1-one], the Emax fell in the range of 100 to 130% and the EC50 lay within 100 to 1000 nM.
